# Target: T1, JAK2 (JH1domain-catalytic, Y1007F,Y1008F) kinase (Homo sapiens, UniProt O60674, Y1007F/Y1008F)
# T1 construct: JAK2 (JH1domain-catalytic, Y1007F,Y1008F) kinase was expressed as N-terminal fusion; made in house; host or cells: transiently transfected HEK293 cells
# Experiment: JAK2 JH1 Domain Binding Assay
# Settings: qPCR readout
# T1 sequence (O60674 849-1124 Y1007F/Y1008F limits assumed): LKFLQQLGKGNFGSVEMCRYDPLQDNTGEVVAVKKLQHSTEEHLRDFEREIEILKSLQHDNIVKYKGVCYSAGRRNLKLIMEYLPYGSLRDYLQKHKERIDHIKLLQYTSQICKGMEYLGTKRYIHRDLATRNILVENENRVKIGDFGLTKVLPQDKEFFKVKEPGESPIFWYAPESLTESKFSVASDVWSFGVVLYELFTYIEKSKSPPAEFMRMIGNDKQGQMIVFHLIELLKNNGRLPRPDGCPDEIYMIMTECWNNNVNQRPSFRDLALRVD
row,SMILES,Kd [nM]
1,"Cc1cc2cc(Oc3cnc4nc(Nc5cc(C(F)(F)F)cn(C)c5=O)n(C)c4c3Cl)cnc2[nH]1 [Example I-293, 3-((7-chloro-1-methyl-6-((2-methyl-1H-pyrrolo[2,3-b]pyridin-5-yl)oxy)-1H-imidazo[4,5-b]pyridin-2-yl)amino)-1-methyl-5-(trifluoromethyl)pyridin-2(1H)-one]",10 to 50
2,"Cn1cc(C(F)(F)F)cc(Nc2nc3ncc(Oc4cnc5[nH]c(C6CC6)cc5c4)c(Cl)c3n2C)c1=O [Example I-294, 3-((7-chloro-6-((2-cyclopropyl-1H-pyrrolo[2,3-b]pyridin-5-yl)oxy)-1-methyl-1H-imidazo[4,5-b]pyridin-2-yl)amino)-1-methyl-5-(trifluoromethyl)pyridin-2(1H)-one]",10 to 50
3,"Cn1c(Nc2cc(C(F)(F)F)cn([C@H]3C[C@H](O)C3)c2=O)nc2ncc(Oc3cnn4cccc(F)c34)c(Cl)c21 [Example I-295, trans-3-((7-chloro-6-((4-fluoropyrazolo[1,5-a]pyridin-3-yl)oxy)-1-methyl-1H-imidazo[4,5-b]pyridin-2-yl)amino)-1-(3-hydroxycyclobutyl)-5-(trifluoromethyl)pyridin-2(1H)-one]",10 to 50
4,"Cn1cc(C(F)(F)F)cc(Nc2nc3ncc(Oc4cnc5[nH]c(C6CC6)cc5c4)c(C#N)c3n2C)c1=O [Example I-296, 6-((2-cyclopropyl-1H-pyrrolo[2,3-b]pyridin-5-yl)oxy)-1-methyl-2-((1-methyl-2-oxo-5-(trifluoromethyl)-1,2-dihydropyridin-3-yl)amino)-1H-imidazo[4,5-b]pyridine-7-carbonitrile]",10 to 50
5,"Cn1c(Nc2cc(C(F)(F)F)cn([C@H]3C[C@H](O)C3)c2=O)nc2ncc(Oc3cnn4cccc(F)c34)c(C#N)c21 [Example I-297, trans-6-((4-fluoropyrazolo[1,5-a]pyridin-3-yl)oxy)-2-((1-(3-hydroxycyclobutyl)-2-oxo-5-(trifluoromethyl)-1,2-dihydropyridin-3-yl)amino)-1-methyl-1H-imidazo[4,5-b]pyridine-7-carbonitrile]",< 10
6,"Cn1c(Nc2ccc(CN3CCCOCC3)c(C(F)(F)F)c2)nc2ncc(Oc3cnn4ccncc34)c(Cl)c21 [Example I-298, N-(4-((1,4-oxazepan-4-yl)methyl)-3-(trifluoromethyl)phenyl)-7-chloro-1-methyl-6-(pyrazolo[1,5-a]pyrazin-3-yloxy)-1H-imidazo[4,5-b]pyridin-2-amine]",< 10
7,"COc1n[nH]c2ncc(Oc3cnc4nc(Nc5cc(C(F)(F)F)cn(C)c5=O)n(C)c4c3C#N)cc12 [Example I-299, 6-((3-methoxy-1H-pyrazolo[3,4-b]pyridin-5-yl)oxy)-1-methyl-2-((1-methyl-2-oxo-5-(trifluoromethyl)-1,2-dihydropyridin-3-yl)amino)-1H-imidazo[4,5-b]pyridine-7-carbonitrile]",< 10
8,"Cn1cc(C(F)(F)F)cc(Nc2nc3ncc(Oc4cnc5[nH]cc(C#N)c5c4)c(C#N)c3n2C)c1=O [Example I-300, 6-((3-cyano-1H-pyrrolo[2,3-b]pyridin-5-yl)oxy)-1-methyl-2-((1-methyl-2-oxo-5-(trifluoromethyl)-1,2-dihydropyridin-3-yl)amino)-1H-imidazo[4,5-b]pyridine-7-carbonitrile]",50 to 1000
9,"CCN1CCCN(Cc2ccc(Nc3nc4ncc(Oc5cnn6ccncc56)c(Cl)c4n3C)cc2C(F)(F)F)CC1 [Example I-301, 7-chloro-N-(4-((4-ethyl-1,4-diazepan-1-yl)methyl)-3-(trifluoromethyl)phenyl)-1-methyl-6-(pyrazolo[1,5-a]pyrazin-3-yloxy)-1H-imidazo[4,5-b]pyridin-2-amine]",< 10
10,"CNc1ccc2c(Oc3cnc4nc(Nc5cc(C(F)(F)F)cn(C)c5=O)n(C)c4c3C#N)cnn2c1 [Example I-302, 1-methyl-2-((1-methyl-2-oxo-5-(trifluoromethyl)-1,2-dihydropyridin-3-yl)amino)-6-((6-(methylamino)pyrazolo[1,5-a]pyridin-3-yl)oxy)-1H-imidazo[4,5-b]pyridine-7-carbonitrile]",10 to 50
11,"CNc1ccc2c(Oc3cnc4nc(Nc5cc(C(F)(F)F)cn(C)c5=O)n(C)c4c3Cl)cnn2c1 [Example I-303, 3-((7-chloro-1-methyl-6-((6-(methylamino)pyrazolo[1,5-a]pyridin-3-yl)oxy)-1H-imidazo[4,5-b]pyridin-2-yl)amino)-1-methyl-5-(trifluoromethyl)pyridin-2(1H)-one]",< 10
12,"CNc1cn2ncc(Oc3cnc4nc(Nc5cc(C(F)(F)F)cn(C)c5=O)n(C)c4c3Cl)c2cn1 [Example I-304, 3-((7-chloro-1-methyl-6-((6-(methylamino)pyrazolo[1,5-a]pyrazin-3-yl)oxy)-1H-imidazo[4,5-b]pyridin-2-yl)amino)-1-methyl-5-(trifluoromethyl)pyridin-2(1H)-one]",< 10
13,"CNc1cn2ncc(Oc3cnc4nc(Nc5cc(CN6CC[C@H](OC)C6)cc(C(F)(F)F)c5)n(C)c4c3Cl)c2cn1 [Example I-307, (S)-7-chloro-N-(3-((3-methoxypyrrolidin-1-yl)methyl)-5-(trifluoromethyl)phenyl)-1-methyl-6-((6-(methylamino)pyrazolo[1,5-a]pyrazin-3-yl)oxy)-1H-imidazo[4,5-b]pyridin-2-amine]",50 to 1000

# Second part, the compound after the results:
row,Kd [nM],SMILES
1,10 to 50,"CNc1cn2ncc(Oc3cnc4nc(Nc5cc(CN6CC[C@@H](OC)C6)cc(C(F)(F)F)c5)n(C)c4c3Cl)c2cn1 [Example I-308, (R)-7-chloro-N-(3-((3-methoxypyrrolidin-1-yl)methyl)-5-(trifluoromethyl)phenyl)-1-methyl-6-((6-(methylamino)pyrazolo[1,5-a]pyrazin-3-yl)oxy)-1H-imidazo[4,5-b]pyridin-2-amine]"
2,< 10,"CNc1cn2ncc(Oc3cnc4nc(Nc5nn6c(c5F)COC(C)(C)C6)n(C)c4c3Cl)c2cn1 [Example I-309, N-(7-chloro-1-methyl-6-((6-(methylamino)pyrazolo[1,5-a]pyrazin-3-yl)oxy)-1H-imidazo[4,5-b]pyridin-2-yl)-3-fluoro-6,6-dimethyl-6,7-dihydro-4H-pyrazolo[5,1-c][1,4]oxazin-2-amine]"
3,50 to 1000,"CNc1cn2ncc(Oc3cnc4nc(Nc5cc(C(F)(F)F)n(C6CC7(COC7)C6)n5)n(C)c4c3Cl)c2cn1 [Example I-310, N-(1-(2-oxaspiro[3.3]heptan-6-yl)-5-(trifluoromethyl)-1H-pyrazol-3-yl)-7-chloro-1-methyl-6-((6-(methylamino)pyrazolo[1,5-a]pyrazin-3-yl)oxy)-1H-imidazo[4,5-b]pyridin-2-amine]"
4,10 to 50,"CNc1cn2ncc(Oc3cnc4nc(Nc5cc6c(c(C(F)(F)F)c5)C(C)(C)N(C)C6=O)n(C)c4c3Cl)c2cn1 [Example I-311, 6-((7-chloro-1-methyl-6-((6-(methylamino)pyrazolo[1,5-a]pyrazin-3-yl)oxy)-1H-imidazo[4,5-b]pyridin-2-yl)amino)-2,3,3-trimethyl-4-(trifluoromethyl)isoindolin-1-one]"
5,< 10,"CNc1cn2ncc(Oc3cnc4nc(Nc5cc(C6CC6)cn(C)c5=O)n(C)c4c3Cl)c2cn1 [Example I-312, 3-((7-chloro-1-methyl-6-((6-(methylamino)pyrazolo[1,5-a]pyrazin-3-yl)oxy)-1H-imidazo[4,5-b]pyridin-2-yl)amino)-5-cyclopropyl-1-methylpyridin-2(1H)-one]"
6,< 10,"CNc1cn2ncc(Oc3cnc4nc(Nc5cc(C(F)(F)F)cn(C(C)C)c5=O)n(C)c4c3Cl)c2cn1 [Example I-313, 3-((7-chloro-1-methyl-6-((6-(methylamino)pyrazolo[1,5-a]pyrazin-3-yl)oxy)-1H-imidazo[4,5-b]pyridin-2-yl)amino)-1-isopropyl-5-(trifluoromethyl)pyridin-2(1H)-one]"
7,< 10,"CNc1cn2ncc(Oc3cnc4nc(Nc5cc(O[C@H]6CCN(C)C6)cc(C(F)(F)F)c5)n(C)c4c3Cl)c2cn1 [Example I-314, (S)-7-chloro-1-methyl-6-((6-(methylamino)pyrazolo[1,5-a]pyrazin-3-yl)oxy)-N-(3-((1-methylpyrrolidin-3-yl)oxy)-5-(trifluoromethyl)phenyl)-1H-imidazo[4,5-b]pyridin-2-amine]"
8,< 10,"CNc1cn2ncc(Oc3cnc4nc(Nc5cc(O[C@@H]6CCN(C)C6)cc(C(F)(F)F)c5)n(C)c4c3Cl)c2cn1 [Example I-315, (R)-7-chloro-1-methyl-6-((6-(methylamino)pyrazolo[1,5-a]pyrazin-3-yl)oxy)-N-(3-((1-methylpyrrolidin-3-yl)oxy)-5-(trifluoromethyl)phenyl)-1H-imidazo[4,5-b]pyridin-2-amine]"
9,10 to 50,"CNc1cn2ncc(Oc3cnc4nc(Nc5cc(CN6CCCC6)cc(C(F)(F)F)c5)n(C)c4c3Cl)c2cn1 [Example I-316, 7-chloro-1-methyl-6-((6-(methylamino)pyrazolo[1,5-a]pyrazin-3-yl)oxy)-N-(3-(pyrrolidin-1-ylmethyl)-5-(trifluoromethyl)phenyl)-1H-imidazo[4,5-b]pyridin-2-amine]"
10,10 to 50,"CNc1cn2ncc(Oc3cnc4nc(Nc5cc(C6CC6)nn(C)c5=O)n(C)c4c3Cl)c2cn1 [Example I-317, 4-((7-chloro-1-methyl-6-((6-(methylamino)pyrazolo[1,5-a]pyrazin-3-yl)oxy)-1H-imidazo[4,5-b]pyridin-2-yl)amino)-6-cyclopropyl-2-methylpyridazin-3(2H)-one]"
11,10 to 50,"CNc1cn2ncc(Oc3cnc4nc(Nc5cc(C(F)(F)F)cn(C)c5=O)n(C)c4c3OC)c2cn1 [Example I-318, 3-((7-methoxy-1-methyl-6-((6-(methylamino)pyrazolo[1,5-a]pyrazin-3-yl)oxy)-1H-imidazo[4,5-b]pyridin-2-yl)amino)-1-methyl-5-(trifluoromethyl)pyridin-2(1H)-one]"
12,< 10,"COCc1n[nH]c2ncc(Oc3cnc4nc(Nc5cc(C(F)(F)F)cn(C)c5=O)n(C)c4c3C#N)cc12 [Example I-319, 6-((3-(methoxymethyl)-1H-pyrazolo[3,4-b]pyridin-5-yl)oxy)-1-methyl-2-((1-methyl-2-oxo-5-(trifluoromethyl)-1,2-dihydropyridin-3-yl)amino)-1H-imidazo[4,5-b]pyridine-7-carbonitrile]"

# Reference: patent publication US12043632B2, “6-heteroaryloxy benzimidazoles and azabenzimidazoles as JAK2 inhibitors” (Ajax Therapeutics, Inc., priority 2020, dated 2024)
